PubChem BioAssay AID330 (DTP/NCI, 2004)
Values joined by “and” are separate entries in the source; they are usually repeats but may differ in a detail not shown here. Equal entries are not always repeated. Toxic doses and inconclusive results are not listed.

System: P388 leukemia ip, CD2F1 mice, survival T/C
Assay: NCI In Vivo Anticancer Drug Screen. Data for tumor model P388 Leukemia (intraperitoneal) in CD2F1 (CDF1) mice
Conditions: endpoint: median survival time, higher = longer survival
Outline: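 Mice carrying the transplanted tumor received test compound or vehicle. Survival was recorded in each group, and the value is the treated-group measurement divided by that of the vehicle-treated control group.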

[1] = dose: 12.5 mg/kg/injection, schedule: Q01DX009 (ip), vehicle: saline with Tween-80
[2] = dose: 25.0 mg/kg/injection, schedule: Q01DX009 (ip), vehicle: saline with Tween-80
[3] = dose: 50.0 mg/kg/injection, schedule: Q01DX005 (ip), vehicle: Klucel (hydroxypropylcellulose) (HPC)
[4] = dose: 100.0 mg/kg/injection, schedule: Q01DX005 (ip), vehicle: Klucel (hydroxypropylcellulose) (HPC)
[5] = dose: 200.0 mg/kg/injection, schedule: Q01DX005 (ip), vehicle: Klucel (hydroxypropylcellulose) (HPC)

In the case of `C/C=C1/C[N+]2([O-])CC[C@@]34c5ccc(OC)cc5N(C)[C@H]3C2CC1C4C(=O)OC` (some centres undefined), the T/C (dose: 2.5 mg/kg/injection, schedule: Q01DX005 (ip), vehicle: Klucel + Tween-80) is reported as 96 % of control, the T/C (dose: 5.0 mg/kg/injection, schedule: Q01DX005 (ip), vehicle: Klucel + Tween-80) is reported as 97 % of control and the T/C (dose: 10.0 mg/kg/injection, schedule: Q01DX005 (ip), vehicle: Klucel + Tween-80) is reported as 98 % of control. The T/C (dose: 20.0 mg/kg/injection, schedule: Q01DX005 (ip), vehicle: Klucel + Tween-80) was 98 % of control.
In the case of `COc1ccc(S(=O)(=O)N/N=C\c2cccc([N+](=O)[O-])c2O)c(OC)c1OC`, the T/C (dose: 50.0 mg/kg/injection, schedule: Q01DX005 (ip), vehicle: saline with Tween-80) is reported as 100 % of control, the T/C (dose: 100.0 mg/kg/injection, schedule: Q01DX005 (ip), vehicle: saline with Tween-80) is reported as 102 % of control and the T/C (dose: 200.0 mg/kg/injection, schedule: Q01DX005 (ip), vehicle: saline with Tween-80) is reported as 96 % of control.
In the case of `CCN1CCCC(OC(=O)c2cccc3[nH]ccc23)C1` (centres undefined), the T/C (dose: 3.13 mg/kg/injection, schedule: Q01DX009 (ip), vehicle: saline with Tween-80) is reported as 118 % of control, the T/C (dose: 6.25 mg/kg/injection, schedule: Q01DX009 (ip), vehicle: saline with Tween-80) is reported as 103 % of control and the T/C [1] is reported as 98 % of control. For the same compound, the T/C [2] was 99 % of control.
For `O=c1[nH]c2ccccc2nc1C1(F)CCCC1`, the T/C (dose: 60.0 mg/kg/injection, schedule: Q01DX005 (ip), vehicle: saline with Tween-80) was 98 % of control, the T/C (dose: 120.0 mg/kg/injection, schedule: Q01DX005 (ip), vehicle: saline with Tween-80) was 92 % of control and the T/C (dose: 240.0 mg/kg/injection, schedule: Q01DX005 (ip), vehicle: saline with Tween-80) was 89 % of control.
`CC1CN=C(c2ccc(NC(=O)Nc3ccc(C(=O)Nc4ccc(C5=NCC(C)N5)cc4)cc3)cc2)N1` (centres undefined) was tested, and the T/C [1] was 195 % of control, the T/C [2] was 159 % of control and 213 % of control and the T/C (dose: 25.0 mg/kg/injection, schedule: Q04DX003 (ip), vehicle: saline with Tween-80) was 116 % of control. For the same compound, the T/C (dose: 50.0 mg/kg/injection, schedule: Q01DX009 (ip), vehicle: saline with Tween-80) was 95 % of control, the T/C (dose: 100.0 mg/kg/injection, schedule: Q04DX003 (ip), vehicle: saline with Tween-80) was 150 % of control and the T/C (dose: 100.0 mg/kg/injection, schedule: Q04DX003 (ip), vehicle: saline) was 163 % of control.
For `Cc1ccc2[nH]c3c(c2c1)-c1ncncc1CC3`, the T/C (dose: 100.0 mg/kg/injection, schedule: Q04DX002 (ip), vehicle: Klucel (hydroxypropylcellulose) (HPC)) was 104 % of control and the T/C (dose: 200.0 mg/kg/injection, schedule: Q04DX002 (ip), vehicle: Klucel (hydroxypropylcellulose) (HPC)) was 92 % of control.
With `CCN(CC)CCCNc1cc(OC)c(Nc2ccccc2)c2cccnc12` the T/C (dose: 3.12 mg/kg/injection, schedule: Q01DX005 (ip), vehicle: suspension in saline) was 112 % of control, the T/C (dose: 6.25 mg/kg/injection, schedule: Q01DX005 (ip), vehicle: suspension in saline) was 100 % of control and the T/C (dose: 12.5 mg/kg/injection, schedule: Q01DX005 (ip), vehicle: suspension in saline) was 99 % of control.
In the case of `NC(=O)SCCC(=O)Nc1ccccc1`, the T/C [3] is reported as 105 % of control, the T/C [4] is reported as 105 % of control and the T/C [5] is reported as 109 % of control.
With `[N-]=[N+]=NC1(N=[N+]=[N-])C(=O)Nc2ccccc2C1=O` (centres undefined) the T/C [3] was 93 % of control, the T/C [4] was 103 % of control and the T/C [5] was 107 % of control.
In the case of `CSC(=O)/N=C(/NC(=O)c1ccccc1)SC`, the T/C [3] is reported as 93 % of control, the T/C [4] is reported as 91 % of control and the T/C [5] is reported as 92 % of control.
With `CS(=O)(=O)OCCN(CCOS(C)(=O)=O)c1ccc(C=Nc2ccc(-c3csc(COc4ccccc4)n3)cc2)cc1` the T/C (dose: 12.5 mg/kg/injection, schedule: Q01DX009 (ip), vehicle: Klucel (hydroxypropylcellulose) (HPC)) was 150 % of control and 151 % of control, the T/C (dose: 25.0 mg/kg/injection, schedule: Q01DX009 (ip), vehicle: Klucel (hydroxypropylcellulose) (HPC)) was 151 % of control and 154 % of control and 164 % of control and the T/C (dose: 25.0 mg/kg/injection, schedule: Q01DX009 (oral), vehicle: Klucel (hydroxypropylcellulose) (HPC)) was 101 % of control and 104 % of control. The T/C (dose: 50.0 mg/kg/injection, schedule: Q01DX009 (ip), vehicle: Klucel (hydroxypropylcellulose) (HPC)) was 162 % of control and 164 % of control and 166 % of control, the T/C (dose: 50.0 mg/kg/injection, schedule: Q01DX009 (oral), vehicle: Klucel (hydroxypropylcellulose) (HPC)) was 101 % of control and 106 % of control and the T/C (dose: 100.0 mg/kg/injection, schedule: Q01DX009 (oral), vehicle: Klucel (hydroxypropylcellulose) (HPC)) was 102 % of control and 108 % of control. The T/C (dose: 200.0 mg/kg/injection, schedule: Q01DX009 (oral), vehicle: Klucel (hydroxypropylcellulose) (HPC)) was 107 % of control, the T/C (dose: 400.0 mg/kg/injection, schedule: Q01DX009 (ip), vehicle: Klucel (hydroxypropylcellulose) (HPC)) was 112 % of control and the T/C (dose: 400.0 mg/kg/injection, schedule: Q01DX009 (oral), vehicle: Klucel (hydroxypropylcellulose) (HPC)) was 109 % of control. The T/C (dose: 800.0 mg/kg/injection, schedule: Q01DX009 (oral), vehicle: Klucel (hydroxypropylcellulose) (HPC)) was 109 % of control.
